Measurements from ChEMBL document CHEMBL3779883, “Design and Synthesis of Nonpeptide Inhibitors of Hepatocyte Growth Factor Activation” (ACS Med Chem Lett, 2016).
Values after ≈ are worked out from the molar mass of the structure shown.

Experiments:
[1] = molecular target: Prothrombin (Homo sapiens, UniProt P00734); assay: Inhibition of human recombinant thrombin using H2N(EEdansyl)GKQLRVVNGG (KDabcyl)-NH2 as substrate by fluorometric analysis
[2] = molecular target: Coagulation factor X (Homo sapiens, UniProt P00742); assay: Inhibition of human recombinant factor 10a using H2N(EEdansyl)GKQLRVVNGG (KDabcyl)-NH2 as substrate by fluorometric analysis
Sequence of Coagulation factor X (P00742 41-179 limits assumed): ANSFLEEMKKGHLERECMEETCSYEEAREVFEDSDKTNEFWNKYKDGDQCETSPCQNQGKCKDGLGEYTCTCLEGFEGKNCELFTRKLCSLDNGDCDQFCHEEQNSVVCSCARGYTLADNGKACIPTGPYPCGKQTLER
Sequence of Coagulation factor X (P00742 235-488 limits assumed): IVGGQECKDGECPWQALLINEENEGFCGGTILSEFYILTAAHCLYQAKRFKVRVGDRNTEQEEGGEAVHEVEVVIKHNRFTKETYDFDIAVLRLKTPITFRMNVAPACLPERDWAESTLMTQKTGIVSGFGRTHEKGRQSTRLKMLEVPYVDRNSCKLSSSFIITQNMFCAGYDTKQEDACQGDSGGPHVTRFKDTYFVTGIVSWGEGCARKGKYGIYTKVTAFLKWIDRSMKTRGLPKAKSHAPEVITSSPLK

[3] = molecular target: Serine protease hepsin (Homo sapiens, UniProt P05981); assay: Inhibition of human recombinant hepsin using H2N(EEdansyl)GKQLRVVNGG (KDabcyl)-NH2 as substrate by fluorometric analysis
Sequence of Serine protease hepsin (P05981 1-162 limits assumed): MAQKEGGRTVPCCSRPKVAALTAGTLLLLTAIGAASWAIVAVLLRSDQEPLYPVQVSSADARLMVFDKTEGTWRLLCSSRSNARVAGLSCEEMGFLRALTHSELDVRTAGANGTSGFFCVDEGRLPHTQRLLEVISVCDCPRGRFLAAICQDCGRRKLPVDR
Sequence of Serine protease hepsin (P05981 163-417 limits assumed): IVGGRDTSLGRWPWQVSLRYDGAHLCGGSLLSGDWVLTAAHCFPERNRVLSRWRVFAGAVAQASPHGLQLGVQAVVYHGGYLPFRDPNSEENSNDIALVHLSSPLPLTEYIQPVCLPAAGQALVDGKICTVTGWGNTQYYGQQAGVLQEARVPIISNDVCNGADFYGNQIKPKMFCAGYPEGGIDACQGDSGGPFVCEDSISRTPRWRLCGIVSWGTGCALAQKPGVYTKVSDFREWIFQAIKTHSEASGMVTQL

[4] = molecular target: T1, Hepatocyte growth factor activator serine protease (Homo sapiens, UniProt Q04756); assay: Inhibition of human recombinant hepatocyte growth factor activator using H2N(EEdansyl)GKQLRVVNGG (KDabcyl)-NH2 as substrate by fluorometric analysis; type: single protein
T1 sequence (Q04756 whole entry): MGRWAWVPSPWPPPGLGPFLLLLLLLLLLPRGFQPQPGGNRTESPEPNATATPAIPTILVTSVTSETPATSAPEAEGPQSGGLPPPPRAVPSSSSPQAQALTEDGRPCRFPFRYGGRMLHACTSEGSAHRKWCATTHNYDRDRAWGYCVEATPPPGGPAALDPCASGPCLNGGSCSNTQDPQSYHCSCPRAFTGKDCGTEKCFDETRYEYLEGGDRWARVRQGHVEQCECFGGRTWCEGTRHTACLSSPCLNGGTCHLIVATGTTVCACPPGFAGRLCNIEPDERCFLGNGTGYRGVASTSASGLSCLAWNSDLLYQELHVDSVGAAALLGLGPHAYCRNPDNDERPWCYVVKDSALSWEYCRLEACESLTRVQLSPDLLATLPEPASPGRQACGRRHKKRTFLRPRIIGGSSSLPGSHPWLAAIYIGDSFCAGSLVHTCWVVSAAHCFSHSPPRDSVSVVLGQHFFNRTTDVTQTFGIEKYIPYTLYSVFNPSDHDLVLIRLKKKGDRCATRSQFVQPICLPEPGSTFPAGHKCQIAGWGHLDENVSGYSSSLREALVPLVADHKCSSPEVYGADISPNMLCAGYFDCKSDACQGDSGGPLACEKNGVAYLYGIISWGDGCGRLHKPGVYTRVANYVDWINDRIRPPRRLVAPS

[5] = molecular target: Trypsin (Homo sapiens, UniProt P07477+P07478+P35030); assay: Inhibition of human recombinant trypsin using H2N(EEdansyl)GKQLRVVNGG (KDabcyl)-NH2 as substrate by fluorometric analysis; type: protein assay
[6] = molecular target: T2, Suppressor of tumorigenicity 14 protein (Homo sapiens, UniProt Q9Y5Y6); assay: Inhibition of human recombinant matripase catalytic domain using H2N(EEdansyl)GKQLRVVNGG (KDabcyl)-NH2 as substrate by fluorometric analysis
T2 sequence (Q9Y5Y6 whole entry): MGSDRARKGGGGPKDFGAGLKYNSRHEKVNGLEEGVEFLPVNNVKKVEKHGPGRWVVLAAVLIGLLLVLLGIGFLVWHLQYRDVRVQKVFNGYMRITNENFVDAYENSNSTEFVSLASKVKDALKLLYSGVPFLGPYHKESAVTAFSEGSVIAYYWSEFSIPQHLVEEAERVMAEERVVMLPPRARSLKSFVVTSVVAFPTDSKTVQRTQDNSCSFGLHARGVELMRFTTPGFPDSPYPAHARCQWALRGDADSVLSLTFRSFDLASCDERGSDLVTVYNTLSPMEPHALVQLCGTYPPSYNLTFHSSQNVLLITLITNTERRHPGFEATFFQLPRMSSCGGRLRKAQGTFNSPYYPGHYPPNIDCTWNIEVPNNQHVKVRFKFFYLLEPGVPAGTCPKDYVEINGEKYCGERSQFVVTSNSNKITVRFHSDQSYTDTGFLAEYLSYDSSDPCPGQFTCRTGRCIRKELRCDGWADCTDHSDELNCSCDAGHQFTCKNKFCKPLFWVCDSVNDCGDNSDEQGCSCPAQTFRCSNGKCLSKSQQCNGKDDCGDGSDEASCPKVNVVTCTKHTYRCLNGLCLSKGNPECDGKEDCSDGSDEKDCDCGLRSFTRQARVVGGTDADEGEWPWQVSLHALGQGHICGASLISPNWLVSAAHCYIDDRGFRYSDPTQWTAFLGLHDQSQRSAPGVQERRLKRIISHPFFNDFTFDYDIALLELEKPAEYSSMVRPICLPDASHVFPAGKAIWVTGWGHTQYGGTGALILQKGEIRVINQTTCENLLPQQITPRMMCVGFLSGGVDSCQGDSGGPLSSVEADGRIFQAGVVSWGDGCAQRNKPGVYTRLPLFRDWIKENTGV

[7] = molecular target: Hepatocyte growth factor activator/Serine protease hepsin/Suppressor of tumorigenicity 14 protein (Homo sapiens) (UniProt Q9Y5Y6+P05981+Q04756); assay: Inhibition of matripase/hepsin/hepatocyte growth factor activator-mediated HGF activation in human 18Co fibroblasts assessed as scattering of human DU145 cells after 24 hrs by crystal violet staining method; type: cell-based
Sequence of Hepatocyte growth factor activator/Serine protease hepsin/Suppressor of tumorigenicity 14 protein (Homo sapiens) (P05981 whole entry, looked up, one chain of several): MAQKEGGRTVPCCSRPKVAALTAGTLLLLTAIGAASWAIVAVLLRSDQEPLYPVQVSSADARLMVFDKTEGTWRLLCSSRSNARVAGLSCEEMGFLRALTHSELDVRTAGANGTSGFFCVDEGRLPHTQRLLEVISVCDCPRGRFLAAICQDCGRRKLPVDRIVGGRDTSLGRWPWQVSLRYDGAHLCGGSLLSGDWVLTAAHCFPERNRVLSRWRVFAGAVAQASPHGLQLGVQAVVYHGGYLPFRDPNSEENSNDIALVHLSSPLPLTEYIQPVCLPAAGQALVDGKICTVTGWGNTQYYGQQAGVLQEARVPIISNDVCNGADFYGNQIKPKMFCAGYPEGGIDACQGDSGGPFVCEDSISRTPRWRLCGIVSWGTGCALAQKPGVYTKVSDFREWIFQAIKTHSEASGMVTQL

[8] = Lipophilicity, logD of the compound at pH 7.4 by shake-flask method; type: physicochemical; conditions: buffer
[9] = Kinetic solubility of the compound at pH 7.4; type: physicochemical; conditions: buffer, read-out: Kinetic_solubility
[10] = Clearance in mouse at 1 mg/kg, iv; type: ADME, organism-based; conditions: in vivo
[11] = AUC in mouse at 5 mg/kg, po; type: ADME, organism-based; conditions: in vivo
[12] = Oral bioavailability in mouse at 5 mg/kg; type: ADME, organism-based; conditions: in vivo
[13] = Half life in mouse at 1 mg/kg, iv; type: ADME, organism-based; conditions: in vivo
[14] = AUC in mouse at 1 mg/kg, iv; type: ADME, organism-based; conditions: in vivo
[15] = Cmax in mouse at 5 mg/kg, po; type: ADME, organism-based; parameters: dose 5 mg/kg, route oral; conditions: in vivo
[16] = Volume of distribution in mouse at 1 mg/kg, iv; type: ADME, organism-based; conditions: in vivo
[17] = Half life in human liver microsomes by LC/MS analysis; type: ADME
[18] = Half life in mouse liver microsomes by LC/MS analysis; type: ADME

Row | Ki [1] | Ki [2] | Ki [3] | Ki [4] | Ki [5] | Ki [6] | inhibition [7] | logD [8] | solubility kinetic [9] | clearance [10] | AUC [11] | bioavailability [12] | half-life [13] | AUC [14] | Cmax [15] | Vd [16] | half-life [17] | half-life [18] | Compound
1 | > 100000 nM | 5400 nM | 53100 nM | 54600 nM | 5300 nM | 40500 nM |  |  |  |  |  |  |  |  |  |  |  |  | N=C(N)c1cccc(NC(=O)NC2CCN(Cc3ccccc3)CC2)c1
2 | > 100000 nM | 49400 nM | 15100 nM | > 100000 nM | 4800 nM | 13500 nM |  |  |  |  |  |  |  |  |  |  |  |  | CC1CN(Cc2cccc(C(=N)N)c2)C(=O)N(C2CCN(Cc3ccccc3)CC2)C1 (stereo unspecified)
3 | > 100000 nM | 750 nM | 1100 nM | 1100 nM | 330 nM | 470 nM |  |  |  |  |  |  |  |  |  |  |  |  | N=C(N)c1cccc(N2CC(CNC(=O)c3ccccc3)CN(CC3CCN(Cc4ccccc4)CC3)C2=O)c1 (stereo unspecified)
4 | 82200 nM | 22800 nM | 20800 nM | 39600 nM | 4800 nM | 15400 nM |  |  |  |  |  |  |  |  |  |  |  |  | CC1CN(Cc2ccc(C(=N)N)cc2)C(=O)N(C2CCN(Cc3ccccc3)CC2)C1 (stereo unspecified)
5 | > 100000 nM | 1550 nM | 310 nM | 1080 nM | 590 nM | 1510 nM |  |  |  |  |  |  |  |  |  |  |  |  | N=C(N)c1cccc(N2CC(CNC(=O)Cc3ccccc3)CN(CC3CCN(Cc4ccccc4)CC3)C2=O)c1 (stereo unspecified)
6 | 8100 nM | 200 nM | 920 nM | 160 nM | 210 nM | 850 nM | Dose-dependent effect | < 2 | 47 µM (≈ 21.1 µg/mL) |  |  |  |  |  |  |  |  |  | COCC1CN(CC2CCN(Cc3ccccc3)CC2)C(=O)N(c2cccc(C(=N)N)c2)C1 (stereo unspecified)
7 | 21900 nM | 850 nM | 210 nM | 880 nM | 390 nM | 280 nM | Dose-dependent effect | < 2 | 47 µM (≈ 19.8 µg/mL) |  |  |  |  |  |  |  |  |  | N=C(N)c1cccc(N2CC(O)CN(CC3CCN(Cc4ccccc4)CC3)C2=O)c1 (stereo unspecified)
8 | 11600 nM | 380 nM | 540 nM | 480 nM | 430 nM | 530 nM | Dose-dependent effect | -0.49 | 91.6 µM (≈ 38.4 µg/mL) | 38 mL/min/kg | 3.31 ng·h/mL | < 1% | 5.8 h | 414 ng·h/mL | 4.45 ng/mL | 4.49 L/kg | 2.7 h | 4.93 h | CC1CN(CC2CCN(Cc3ccccc3)CC2)C(=O)N(c2cccc(C(=N)N)c2)C1 (stereo unspecified)
9 | 2130 nM | 180 nM | 560 nM | 430 nM | 100 nM | 850 nM |  | < 2 | 47 µM (≈ 24.7 µg/mL) |  |  |  |  |  |  |  |  |  | N=C(N)c1cccc(N2CC(COCc3ccccc3)CN(CC3CCN(Cc4ccccc4)CC3)C2=O)c1 (stereo unspecified)
10 | 13400 nM | 660 nM | 530 nM | 440 nM | 310 nM | 350 nM |  |  |  |  |  |  |  |  |  |  |  |  | N=C(N)c1cccc(N2CC(NS(=O)(=O)Cc3ccccc3)CN(CC3CCN(Cc4ccccc4)CC3)C2=O)c1 (stereo unspecified)
11 | > 100000 nM | 510 nM | 720 nM | 350 nM | 420 nM | 330 nM |  |  |  |  |  |  |  |  |  |  |  |  | CS(=O)(=O)NC1CN(CC2CCN(Cc3ccccc3)CC2)C(=O)N(c2cccc(C(=N)N)c2)C1 (stereo unspecified)
12 | > 100000 nM | 25500 nM | 61200 nM | 46500 nM | 35400 nM | 48900 nM |  |  |  |  |  |  |  |  |  |  |  |  | CC1CN(c2ccc(C(=N)N)cc2)C(=O)N(C2CCN(Cc3ccccc3)CC2)C1 (stereo unspecified)
13 | 42300 nM | 740 nM | 1120 nM | 380 nM | 500 nM | 1280 nM |  |  |  |  |  |  |  |  |  |  |  |  | N=C(N)c1cccc(N2CC(NC(=O)Cc3ccccc3)CN(CC3CCN(Cc4ccccc4)CC3)C2=O)c1 (stereo unspecified)
14 | 7400 nM | 250 nM | 690 nM | 230 nM | 150 nM | 580 nM | Dose-dependent effect | < 2 | 47 µM (≈ 20.5 µg/mL) |  |  |  |  |  |  |  |  |  | N=C(N)c1cccc(N2CC(CO)CN(CC3CCN(Cc4ccccc4)CC3)C2=O)c1 (stereo unspecified)
15 | 29700 nM | 920 nM | 760 nM | 1920 nM | 550 nM | 1540 nM |  | < 2 | 47 µM (≈ 24 µg/mL) |  |  |  |  |  |  |  |  |  | N=C(N)c1cccc(N2CC(OCc3ccccc3)CN(CC3CCN(Cc4ccccc4)CC3)C2=O)c1 (stereo unspecified)
16 | 17000 nM | 610 nM | 670 nM | 520 nM | 340 nM | 520 nM |  |  |  |  |  |  |  |  |  |  |  |  | N=C(N)c1cccc(N2CC(NS(=O)(=O)c3ccccc3)CN(CC3CCN(Cc4ccccc4)CC3)C2=O)c1 (stereo unspecified)
17 | > 100000 nM | 400 nM | 2120 nM | 1110 nM | 2770 nM | 510 nM |  |  |  |  |  |  |  |  |  |  |  |  | CC1CN(CCC2CCN(Cc3ccccc3)CC2)C(=O)N(c2cccc(C(=N)N)c2)C1 (stereo unspecified)
18 | 35900 nM | 240 nM | 3400 nM | 9800 nM | 780 nM | 830 nM |  |  |  |  |  |  |  |  |  |  |  |  | CC1CN(c2cccc(C(=N)N)c2)C(=O)N(C2CCN(Cc3ccccc3)CC2)C1 (stereo unspecified)
19 | > 100000 nM | 1230 nM | 760 nM | 2490 nM | 760 nM | 810 nM |  | < 2 | 47 µM (≈ 20.5 µg/mL) |  |  |  |  |  |  |  |  |  | COC1CN(CC2CCN(Cc3ccccc3)CC2)C(=O)N(c2cccc(C(=N)N)c2)C1 (stereo unspecified)
